# Assay: Photothermal stability of compound in HBSS buffer assessed as thermal relaxation half life measured after pre-illumination of compound to reach cis-isomer
# Type: physicochemical
row,SMILES,half-life
1,CC(C)(C)NCC(O)c1cc(Cl)c(/N=N/c2ccccc2)c(Cl)c1 (racemic),112 days
2,CC(C)(C)NCC(O)c1cc(Cl)c(/N=N/c2ccccc2)c(C#N)c1 (racemic),11 days
3,CC(C)(C)NCC(O)c1cc(Cl)c(/N=N/c2c(Cl)cccc2Cl)c(Cl)c1 (racemic),26 days
4,CC(C)(C)NCC(O)c1ccc(/N=N/c2ccccc2)c(Cl)c1 (racemic),38 days
5,CC(C)(C)NCC(O)c1ccc(/N=N/c2ccccc2)cc1 (racemic),29 days
